Experiments:
Format in all cases: in vivo
[1] = test system: Frankliniella occidentalis; experiment: Western Flower Thrips (Frankliniella occidentalis) mortality on treated cotton leaf discs, comparative experiment; conditions: foliar, 48 h, thrips mortality at 2 DAT, read-out: mortality in comparison with untreated controls
Procedure: The active compounds were formulated by a Tecan liquid handler in 100% cyclohexanone as a 10,000 ppm solution supplied in tubes. The 10,000 ppm solution was serially diluted in 100% cyclohexanone to make interim solutions. These served as stock solutions for which final dilutions were made by the Tecan in 50% acetone:50% water (v/v) into 10 or 20 ml glass vials. A nonionic surfactant (Kinetic®) was included in the solution at a volume of 0.01% (v/v). The vials were then inserted into an automated electrostatic sprayer equipped with an atomizing nozzle for application to plants/insects. Small (˜2″ in height) cotton plants were sprayed with test compounds at concentrations ranging from 300 to 0.01 ppm in acetone/water through the automated VPS. After drying, cotton leaves were removed, and circular leaf discs (˜1 cm diameter) were punched from the treated surface and transferred to clean 20 mL scintillation vials. Ten Western flower thrips (FRANOC) were aspirated into each scintillation vial. The vials with the leaf discs and thrips were kept in an upright incubator at 25° C. and 50% relative humidity with a 14:10 light:dark photoperiod. Each treatment was replicated twice. Thrips mortality was assessed at 2 DAT (days after treatment), counting all thrips both dead and alive.

Myzus persicae = experiment: Green Peach Aphid (Myzus persicae), mixed life stages, systemic artificial diet test; conditions: 72 h, aphid mortality after 3 days, read-out: mortality in comparison with untreated controls
Text: For evaluating control of Green Peach Aphid through systemic means the test unit consisted of 96-well-microtiter plates containing liquid artificial diet under an artificial membrane. The compounds were formulated using a solution containing 75% v/v water and 25% v/v DMSO. Different concentrations of formulated compounds were pipetted into the aphid diet, using a custom-built pipette, at two replications. After application, 5-8 adult aphids were placed on the artificial membrane inside the microtiter plate wells. The aphids were then allowed to suck on the treated aphid diet and incubated at about 23±1° C. and about 50±5% relative humidity for 3 days. Aphid mortality and fecundity was then visually assessed.

Anthonomus grandis = experiment: Boll weevil (Anthonomus grandis) egg and larval mortality, microtiter plate diet test; conditions: 120 h, egg and larval mortality after 5 days, read-out: mortality in comparison with untreated controls
Procedure: For evaluating control of boll weevil, the test unit consisted of 96-well-microtiter plates containing an insect diet and 5-10 A. grandis eggs.
The compounds were formulated using a solution containing 75% v/v water and 25% v/v DMSO. Different concentrations of formulated compounds were sprayed onto the insect diet at 5 μl, using a custom-built micro atomizer, at two replications.
After application, microtiter plates were incubated at about 25±1° C. and about 75±5% relative humidity for 5 days. Egg and larval mortality were then visually assessed.

Spodoptera eridania = experiment: Southern Armyworm (Spodoptera eridania), 2nd instar larvae, on sprayed lima bean plants, comparative experiment; conditions: 96 h, 4 days after treatment, read-out: mortality in comparison with untreated controls
Procedure: The active compounds were formulated by a Tecan liquid handler in 100% cyclohexanone as a 10,000-ppm solution supplied in tubes. The 10,000-ppm solution was serially diluted in 100% cyclohexanone to make interim solutions. These served as stock solutions for which final dilutions were made by the Tecan in 50% acetone:50% water (v/v) into 10 or 20 ml glass vials. A nonionic surfactant (Kinetic®) was included in the solution at a volume of 0.01% (v/v). The vials were then inserted into an automated electrostatic sprayer equipped with an atomizing nozzle for application to plants/insects. Lima bean plants (variety Sieva) were grown 2 plants to a pot and selected for treatment at the 1st true leaf stage. Test solutions were sprayed onto the foliage by an auto-mated electrostatic plant sprayer equipped with an atomizing spray nozzle. The plants were dried in the sprayer fume hood and then removed from the sprayer. Each pot was placed into perforated plastic bags with a zip closure. Ten to 11 armyworm larvae were placed into the bag and the bags zipped closed. Test plants were maintained in a growth room at about 25° C. and about 20-40% relative humidity for 4 days, avoiding direct exposure to fluorescent light (14:10 light:dark photoperiod) to prevent trapping of heat inside the bags. Mortality and reduced feeding were assessed 4 days after treatment, compared to untreated control plants.

Heliothis virescens = experiment: Tobacco Budworm (Heliothis virescens) egg and larval mortality, microtiter plate diet test; conditions: 120 h, egg and larval mortality after 5 days, read-out: mortality in comparison with untreated controls
Procedure: For evaluating control of Tobacco Budworm, the test unit consisted of 96-well-microtiter plates containing an insect diet and 15-25 H. virescens eggs. The compounds were formulated using a solution containing 75% v/v water and 25% v/v DMSO. Different concentrations of formulated compounds were sprayed onto the insect diet at 10 μl, using a custom-built micro atomizer, at two replications. After application, microtiter plates were incubated at about 28±1° C. and about 80±5% relative humidity for 5 days. Egg and larval mortality was then visually assessed.

Structure (SMILES)	mortality at 100 ppm [1] [%]	mortality at 800 ppm (Myzus persicae) [%]	mortality at 800 ppm (Anthonomus grandis) [%]	mortality at 1 ppm (Spodoptera eridania) [%]	mortality at 800 ppm (Heliothis virescens; 800 ppm) [%]	mortality at 2500 ppm (Heliothis virescens; 2500 ppm) [%]
O=C(NCc1cc(NC2=NOC(c3cc(Cl)cc(Cl)c3)(C(F)(F)F)C2)ccc1F)C1CC1 (centres unmarked) [I-8]	100	≥ 75	≥ 75	80	≥ 75	≥ 75
N#CC1(NC(=O)c2cc(NC3=NOC(c4cc(Cl)cc(Cl)c4)(C(F)(F)F)C3)ccc2F)CC1 (centres unmarked) [I-30 of WO2022/171472, reference compound]	19			0		

From patent US20260008757A1, “N-(3-(AMINOMETHYL)-PHENYL)-5-(4-PHENYL)-5-(TRIFLUOROMETHYL)-4,5-DIHYDROISOXAZOL-3-AMINE DERIVATIVES AND SIMILAR COMPOUNDS AS PESTICIDES” (BASF SE, priority 2022, published 2026)
